Test results taken from patent publication US11337982B2, “Combined treatment with a TLR7 agonist and an HBV capsid assembly inhibitor” (Hoffmann-La Roche Inc., priority 2016, dated 2022).

Columns and labels:
[1] = Conversion of prodrug into active moiety
human TLR7 = target: T1, human TLR7 (Homo sapiens, UniProt Q9NYK1); experiment: HEK293-Blue-hTLR-7 cells assay (SEAP reporter); assay type: cell-based; conditions: active moiety; read-out: potency to active TLR7 in HEK293-hTLR7 assay
T1 sequence (Q9NYK1 27-1049): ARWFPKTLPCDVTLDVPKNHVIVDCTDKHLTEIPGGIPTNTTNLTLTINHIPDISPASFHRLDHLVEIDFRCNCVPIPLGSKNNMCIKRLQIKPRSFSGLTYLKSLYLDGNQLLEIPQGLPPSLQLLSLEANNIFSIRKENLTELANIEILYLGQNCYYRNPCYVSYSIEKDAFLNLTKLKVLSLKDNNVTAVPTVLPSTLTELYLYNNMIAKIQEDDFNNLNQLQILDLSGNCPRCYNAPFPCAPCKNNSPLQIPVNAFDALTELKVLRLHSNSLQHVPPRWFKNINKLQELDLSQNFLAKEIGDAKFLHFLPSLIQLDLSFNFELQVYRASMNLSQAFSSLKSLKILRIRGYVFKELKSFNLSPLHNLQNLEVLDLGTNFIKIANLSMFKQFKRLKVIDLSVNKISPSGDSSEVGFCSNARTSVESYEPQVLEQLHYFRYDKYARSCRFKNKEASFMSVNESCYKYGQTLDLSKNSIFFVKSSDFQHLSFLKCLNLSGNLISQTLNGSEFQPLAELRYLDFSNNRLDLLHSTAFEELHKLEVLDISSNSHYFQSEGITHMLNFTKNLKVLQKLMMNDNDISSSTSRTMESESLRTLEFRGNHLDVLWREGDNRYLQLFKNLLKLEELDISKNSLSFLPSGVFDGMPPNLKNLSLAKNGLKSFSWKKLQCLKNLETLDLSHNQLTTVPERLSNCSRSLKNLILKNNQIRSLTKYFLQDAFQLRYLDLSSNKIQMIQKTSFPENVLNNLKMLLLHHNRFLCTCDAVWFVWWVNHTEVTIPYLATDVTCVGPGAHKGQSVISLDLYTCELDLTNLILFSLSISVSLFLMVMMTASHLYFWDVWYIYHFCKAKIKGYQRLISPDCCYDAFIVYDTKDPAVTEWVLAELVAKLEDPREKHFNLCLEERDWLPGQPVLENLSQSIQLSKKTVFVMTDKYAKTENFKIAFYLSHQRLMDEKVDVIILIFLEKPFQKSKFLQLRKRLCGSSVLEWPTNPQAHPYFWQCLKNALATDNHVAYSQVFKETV
Excerpt: HEK293-Blue-hTLR-7 Cells Assay:
A stable HEK293-Blue-hTLR-7 cell line was purchased from InvivoGen (Cat.#: hkb-htlr7, San Diego, Calif., USA). These cells were designed for studying the stimulation of human TLR7 by monitoring the activation of NF-κB. A reporter gene of secreted embryonic alkaline phosphatase (SEAP) was placed under the control of the IFN-β[…]minimal promoter fused to five NF-κB and AP-1-binding sites. SEAP was induced by the activation of NF-κB and AP-1 upon stimulating HEK-Blue hTLR7 cells with TLR7 ligands. SEAP activity in cell culture supernatant was determined using QUANTI-Blue™ kit (Cat.#: rep-qb1, Invivogen, San Diego, Calif., USA) at a wavelength of 640 nm. Such reporter assays have been widely used for evaluation of TLR7 agonism (Tsuneyasu Kaisho and Takashi Tanaka, Trends in Immunology, Volume 29, Issue 7, July 2008, […]; Hiroaki Hemmi et al, Nature Immunology 3, 196-200 (2002).
Specifically, HEK293-Blue-hTLR7 cells were incubated at a density of 250,000˜450,000 cells/mL in a volume of 180 μL in a 96-well plate in Dulbecco's Modified Eagle's medium (DMEM) containing 4.5 g/L glucose, 50 U/mL penicillin, […], […], 2 mM L-glutamine, 10% (v/v) heat-inactivated fetal bovine serum for 24 h. The cells were then incubated with 20 μL of test compound in a serial dilution at 37° C. in a CO2 incubator for 20 hours. Then 20 μL of the supernatant from each well was incubated with 180 μL Quanti-blue substrate solution at 37° C. for 2 hours and the absorbance was measured at 620˜655 nm using a spectrophotometer.

AAV-HBV = AAV-HBV mouse model, serum HBV biomarkers; assay type: in vivo; conditions: Compound 5 20 mg/kg QD, p.o., after 42 days of treatment
Excerpt: 4-week old male C57BL/6 mice, specific pathogen free, were purchased from Shanghai Laboratory Animal Center of Chinese Academy of Sciences (SLAC) and housed in an animal care facility in individually ventilated cages under controlled temperature and light conditions following the Institutional Animal Care guidelines. AAV-HBV virus was purchased from Beijing FivePlus Molecular Medicine Institute (Beijing, China). This recombinant virus carries 1.3 copies of the HBV genome, which was packaged in AAV serotype 8 (AAV8) capsids. C57BL/6 mice were injected with 200 μL of recombinant virus, diluted in saline buffer, through tail vein injection. After 3-4 weeks, animals were bled to monitor HBV genomic DNA and surface antigen (HBsAg) in serum, and then were randomly grouped according to these HBV biomarkers.
Serum HBsAg was measured using CLIA kits (Autobio Diagnostics Co., Ltd, Zhengzhou, China) according to the manufacturer's instructions. The lower limit of detection (LLOQ) for HBsAg was 0.05 IU/mL. 500-fold dilution of serum was used to obtain values within the linear range of standard curves. Serum HBV DNA was extracted using a MagNA Pure 96 DNA and Viral NA Small Volume Kit (Roche) following the manufacturer's instructions. The DNA samples were analyzed by real-time quantitative PCR (qPCR) using a HBV-specific primer and probe set for specific amplification and detection of a 128 bp HBV genome region from the nucleotide 2969 to 3096. The sequences of the primers and probe are shown as follows: […]
Anti-HBs antibody was examined in mouse serum using the anti-HBs CLIA kit (Antobio, Zhengzhou, China) according to the manufacturer's instruction with modification. ˜15 μL of the diluted (1:3) mouse serum samples were thawed at room temperature for 10 mins. 6 μL of sample was further diluted in 30 μL of PBS to make the final dilution 1:18 for the antibody test. Standard curve were prepared with monoclonal mouse antibody Anti-Hepatitis B Virus Surface Antigen (Ad/Ay) antibody [S35] (Abcam ab20402) in diluted Naive mouse serum (1:18 dilution in PBS). 1 μL of 1 mg/ml anti-HBs antibody was added into 500 μL of diluted mouse serum to make standard 1 as final concentration 2000 ng/ml. 50 μL of standard 1 then was added into 150 μL of diluted mouse serum to make standard 2 (1:4 dilution). 7 points standards were required for the test. The final concentration of standard 7 was (0.488 ng/ml). Blank serum was used as background control. 25 μL of diluted serum sample/standards/Blank was transferred into 96-well plate. Samples were incubated at room temperature for 1 hour followed by 3 times washing with 300 μL of PBST. 0.5 mg/ml of Goat anti-mouse IgG Biotinylated (Mabtech 3825-6-250) was diluted into PBS to final concentration 1 μg/ml (1:500 dilution). […] anti-mouse IgG Bio was added into plate, incubated at room temperature for 1 hour followed by 3 times washing with 300 μL of PBST. Streptavidin-HRP (Mabtech 3310-9) was diluted into PBS (1:250). 50 μL of diluted Streptavidin-HRP was incubated at room temperature for 1 hour followed by 3 times washing with 300 μL of PBST. Substrate A and substrate B (AntuBio) were mixed. 50 μL of mixture were added into plated and incubated for 10 mins before subjected to luminescence reading with Envision microplate reader. The lower limit of detection for anti HBsAb was 36 ng/mL. The anti HBsAb results were calculated from Luminescence raw data fitting on the anti HBsAb standard curve by SoftMax Pro (v5.4.1) software.
In Group 01, animals were treated with Vehicle every other day (QOD) for 42 days and served as the placebo control. In Group 02, Compound 4 was dosed once weekly (QW) at 10 mg/kg for 42 days. Compound 5 was dosed once daily (QD) at 20 mg/kg for 42 days alone in Group 03, or in combination with 10 mg/kg of Compound 4 QW in Group 04. All the test articles were administered by oral gavage (PO) with a total dose volume of 10 mL/kg. The 42-day treatment was followed by a 42-day off-treatment period. […]

HBV = HBV infected transgenic mouse or humanized mouse models; cited from earlier work
[2] = Example 5, Compound 4 10 mg/kg QW
[3] = Example 6, Compound 3 1 mg/kg QOW

CCCN(C)C(=O)n1c(=O)n(Cc2ccc(Cl)cc2)c2nc([S@@](=N)(=O)CC)nc(N)c21 [Compound 1, 6-Amino-9-[(4-chlorophenyl)methyl]-2-[S(S)-ethylsulfonimidoyl]-N-methyl-8-oxo-N-propyl-purine-7-carboxamide]
conversion of prodrug into the active moiety [1]: efficiently converted

CC[S@](=N)(=O)c1nc(N)c2[nH]c(=O)n(Cc3ccc(Cl)cc3)c2n1 (single isomer, unassigned) [Compound 1e-A]
EC50 (human TLR7): 71 nM

CCCN(C)C(=O)n1c(=O)n(Cc2ccc(Cl)cc2)c2nc([S@](=N)(=O)CC)nc(N)c21 [Compound 2, 6-amino-9-[(4-chlorophenyl)methyl]-2-[S(R)-ethylsulfonimidoyl]-N-methyl-8-oxo-N-propyl-purine-7-carboxamide]
conversion of prodrug into the active moiety [1]: efficiently converted

CC[S@@](=N)(=O)c1nc(N)c2[nH]c(=O)n(Cc3ccc(C)cc3)c2n1 [Compound 4f-A, 6-amino-2-(S(R)-ethylsulfonimidoyl)-9-(p-tolylmethyl)-7H-purin-8-one]
EC50 (human TLR7): 110 nM

CCOC(=O)C1=C(CN2CCN3C(=O)N(CC(C)(C)C(=O)O)C[C@@H]3C2)NC(c2nccs2)=N[C@H]1c1cccc(F)c1C [Compound 5, 3-[(8aS)-7-[[(4S)-5-ethoxycarbonyl-4-(3-fluoro-2-methyl-phenyl)-2-thiazol-2-yl-1,4-dihydropyrimidin-6-yl]methyl]-3-oxo-5,6,8,8a-tetrahydro-1H-imidazo[1,5-a]pyrazin-2-yl]-2,2-dimethyl-propanoic acid]
HBV DNA reduction (AAV-HBV; [2]): significant reduction | HBsAg reduction (AAV-HBV; [2]): significant reduction | HBV DNA reduction (AAV-HBV; [3]): significant reduction | HBsAg reduction (AAV-HBV; [3]): significant reduction

COC(=O)C1=C(C)NC(c2ncc(F)cc2F)=N[C@H]1c1ccc(F)cc1Cl [Bay 41-4109]
in vivo efficacy, HBV DNA (HBV): in vivo efficacy with HBV DNA reduction

CC[S@@](=N)(=O)c1nc(N)c2[nH]c(=O)n(Cc3ccc(Cl)cc3)c2n1 [Compound 1e-B]
EC50 (human TLR7): 85 nM

CCCN(C)C(=O)n1c(=O)n(Cc2ccc(C)cc2)c2nc([S@](=N)(=O)CC)nc(N)c21 [Compound 4, 6-Amino-2-[S(R)-(ethylsulfonimidoyl)]-N-methyl-8-oxo-N-propyl-9-(p-tolylmethyl)purine-7-carboxamide]
HBV DNA reduction (AAV-HBV; [2]): significant reduction | HBsAg reduction (AAV-HBV; [2]): significant reduction | conversion of prodrug into the active moiety [1]: efficiently converted

CCN(C)C(=O)n1c(=O)n(Cc2ccc(Cl)cc2)c2nc([S@@](=N)(=O)CC)nc(N)c21 [Compound 3, 6-Amino-9-[(4-chlorophenyl)methyl]-N-ethyl-2-[S(S)-(ethylsulfonimidoyl)]-N-methyl-8-oxo-purine-7-carboxamide]
HBV DNA reduction (AAV-HBV; [3]): significant reduction | HBsAg reduction (AAV-HBV; [3]): significant reduction | conversion of prodrug into the active moiety [1]: efficiently converted
